Values quoted from earlier work in article PMC8278929 (Chemical Science, 2021).
Each block holds one compound with its values, some of them ahead of it.

How the values were obtained:
[1] = free, uncoordinated alcohol, no reference given
[2] = analogue of 11
[3] = in PBS, Os/pyr/for 1:200:400

estimated pKa [1]: ca. 16
Compound: OCCCc1ccccc1 [3-phenyl-1-propanol]

ΔS^‡ (entropy of hydrolysis) [2]: −55.6 ± 1.6 J K^−1 mol^−1
Compound: [Os(η^6-C6H5C6H5)(4-Me-pico)Cl]^+

Compound: [Os(η^6-p-cymene)(TsDPEN)]
TOFmax [3]: 1.5 h⁻¹
